≈ marks a conversion by molar mass, not a printed value.
How the values were obtained:
[1] = test system: Complete Freund's Adjuvant (CFA)-induced inflammation; test: Complete Freund's adjuvant (CFA)-induced inflammation model, volume displacement by plethysmometer; format: in vivo, Sprague-Dawley male rats
Method: (§1) Preclinical studies were performed in rats with a chronic inflammation model using complete Freund's adjuvant (CFA) given intra-articularly (AIA), as well as an acute model induced by carrageenan (CAR) given in the subplantar region.
(§2) In these models, the inflammation induced by the complete Freund's adjuvant and carrageenan is determined by the volume displacement measured with a plethysmometer.

[2] = test system: carrageenan (CAR)-induced inflammation; test: Carrageenan (CAR)-induced subplantar edema model, volume displacement by plethysmometer; format: in vivo, rats; conditions: for Time from which an anti-inflammatory effect is shown, carrageenan model: oral 100 mg/kg; for Effect in the time course, carrageenan model: oral 100 and 320 mg/kg
Method: The carrageenan (CAR)-induced subplantar edema model was used in the evaluation of the acute effect.
as §1, §2

[3] = test system: CAR-induced thermal hyperalgesia; test: Thermal hyperalgesia induced by carrageenan; format: in vivo, rats; conditions: oral 100 mg/kg
[4] = Thermodynamic solubility study in water with 1% LSS; format: physicochemical
Method: It was performed by adding 2 g of the solid phase to LSS (sodium lauryl sulfate) medium, with stirring at 37.5° C., and taking aliquots at 3, 5, 10 and 30 minutes. Aliquots were filtered and measurements were made with UV-Vis spectroscopy at 420 nm.
We measured the solubility of the co-amorphous phases at a lower concentration of 0.05 g in 3.5 ml, for determining the effect of concentration on the aggregation phenomenon.

[5] = Merck Index 15th ed.; cited from earlier work
[6] = oral, 100 and 320 mg/kg, 1 h before

N=C(N)NCCC[C@H](N)C(=O)O [L-arginine]
Effect in relation to the vehicle in the time course, CFA model ([1]; oral 100 and 320 mg/kg, between 2 and 4 hours): showed an inflammatory effect in relation to the vehicle | Time from which an anti-inflammatory effect is shown, carrageenan model [2]: only in the last measurement | Effect in the time course, carrageenan model ([2]; first two hours): inclined to show a proinflammatory effect | Antihyperalgesic effect, carrageenan-induced thermal hyperalgesia [3]: the three treatments produce an antihyperalgesic effect

COc1cc(/C=C/C(=O)CC(=O)/C=C/c2ccc(O)c(OC)c2)ccc1O [curcumin, (1E,6E)-1,7-bis(4-hydroxy-3-methoxyphenyl)-1,6-heptadiene-3,5-dione]
Effect with respect to the vehicle in the time course, CFA model ([1]; oral 100 mg/kg, at 3 and 4 hours): shows an inflammatory effect with respect to the vehicle | Effect with respect to the vehicle in the time course, CFA model ([1]; oral 320 mg/kg, between 2 and 6 hours): shows an inflammatory effect with respect to the vehicle | Reversal of the inflammatory effect induced by complete Freund's adjuvant (AUC) [1, 6]: unable to reverse the inflammatory effect | Time from which an anti-inflammatory effect is shown, carrageenan model [2]: only in the last measurement | Effect with respect to the vehicle in the time course, carrageenan model ([2]; oral 320 mg/kg, at 1 and 2 hours): The same phenomenon is observed | Effect in the time course, carrageenan model ([2]; at 6 hours): seem to reverse the inflammatory effect induced by carrageenan | Reversal of the inflammatory effect induced by carrageenan (AUC) [2, 6]: unable to reverse the inflammatory effect | Antihyperalgesic effect, carrageenan-induced thermal hyperalgesia [3]: the three treatments produce an antihyperalgesic effect | solubility at 30 min ([4]; water with 1% sodium lauryl sulfate (LSS), aqueous with cosolvent or surfactant or cyclodextrin, thermodynamic from solid, high concentration sample, 37.5° C., water with 1% LSS, 30 min): 110 µg/mL (≈ 299 µM) | Solubility of curcumin alone in water ([4]; water, could not be determined): almost insoluble in water | Solubility in solvents [5]: soluble in ethanol and in concentrated acetic acid

O=C(O)Cc1ccccc1Nc1c(Cl)cccc1Cl [diclofenac]
Reversal of inflammation induced by complete Freund's adjuvant ([1]; oral, fixed dose 100 mg/kg): exhibited an anti-inflammatory effect | Reversal of inflammation induced by carrageenan ([2]; oral, fixed dose 100 mg/kg): exhibited an anti-inflammatory effect
